Reference: patent publication US12018157B2, “Tunable photoactivatable silicon rhodamine fluorophores” (SPIROCHROME AG, priority 2017, dated 2024)

Legend:
[1] = UV-Vis analysis / full absorbance spectra of PA-SiR 2a before and after UV irradiation; assay type: physicochemical; settings: PBS
Protocol: PBS solutions of different pH were adjusted by addition of HCl or NaOH solution using a pH meter.
Solutions were prepared in PBS ([…] or 20 μM) at the indicated pH. UV irradiation was performed outside of the spectrometer for the indicated period (T). Absorbance spectra were recorded using a SHIMADZU UV spectrophotometer (UV-1800) and 1 cm fluorescence quartz cuvettes (Hellma Analytics). Spectra were recorded every minute.
Solutions of 2a in PBS (10 μM) at the desired pH were prepared in 1 cm fluorescence quartz cuvette (Hellma Analytics). UV irradiation was performed directly inside the spectrophotometer during the running experiment at a fixed distance (F, single flash). Kinetic absorbance measurements were recorded on a Perkin-Elmer Lambda 950 spectrophotometer at 646 nm.

Actin = assay: Live-cell imaging, localisation of PA-SiR-Actin to its target; assay type: cell-based
Protocol: (§1) HeLa or U2OS cells were cultured in high-glucose DMEM media with GlutaMAX-1 (Life Technologies) supplemented with 10% FBS (Life Technologies) in a humidified 5% CO2 incubator at 37° C. Cells were split every 3-4 days or at confluency.
(§2) Cells were stained with 1-3 μM PA-SiR (1-2 h, 37° C.), washed with phenol-red free DMEM medium (Life Technologies) or PBS (once for 3 min, 37° C.) and imaged in the same medium.
(§3) Imaging was performed using a Leica DMI6000B microscope equipped with a Hamamatsu-C9100 EM-CCD camera and a HCX PL APO 100.0×1.47 Oil objective and a standard Cy5 filter set was used. Activation of the fluorophores was achieved by irradiation with the DAPI-channel at 100% for 10-20 s. The same settings (exposure time=150 ms, gain=3, EM-gain=800, transmission=12.5%) were used for the images taken before and after UV irradiation in the SiR-channel.
(§4) Confocal imaging was performed on a Leica DMi8 microscope equipped with a Leica TCS SP8 X scanhead, a white light laser, a 355 nm laser (Coherent) and HC PL APO 63×1.47 Oil objective. The 355 nm laser was used to perform the photoactivation.

DNA = assay: Live-cell imaging, localisation of PA-SiR-DNA to its target; assay type: cell-based
Protocol: as §1, §2, §3, §4

[2] = test system: HaloTag in the nucleus of Hela cells; assay: Live-cell imaging, localisation in Hela cells expressing HaloTag in the nucleus; assay type: cell-based
Protocol: (§5) Mammalian expression vectors with a SNAP-tag-NLS or SNAP-tag-Halo-tag-NLS fusion construct were available in the Johnsson lab. H2B-Halo was constructed from a pEBTet plasmid and the commercially available pCLIPf-H2B plasmid (NEB).
as §1
(§6) Cells were seeded on glass bottom 35 mm dishes (Mattek) one day before imaging. Transient transfection of cells was performed using Lipofectamine™ 2000 reagent (Life Technologies) according to the manufacturer's recommendations: DNA (2.5 μg) was mixed with OptiMEM I (100 μL, Life Technologies) and Lipofectamine™ 2000 (6 μL) was mixed with OptiMEM I (100 μL). The solutions were incubated for 5 min at room temperature. They were mixed and incubated for 20 min at room temperature. Prepared DNA-Lipofectamine complex was added to a glass bottom 35 mm dish with cells at 50-70% confluency. After 6 h incubation in a humidified 5% CO2 incubator at 37° C. the medium was changed to a fresh high-glucose DMEM medium with GlutaMAX-1 supplemented with 10% FBS. The cells were incubated for 1-2 days before imaging. […]

HaloTag-H2B fusion = assay: Live-cell imaging, U2OS cells expressing HaloTag-H2B fusion; assay type: cell-based; settings: 1 μM, 1 h (FIG. 3)
Protocol: FIG. 3 U2OS cells expressing HaloTag-H2B fusion stained with PA-SiR-Halo for 1 h (1 μM) and washed once for 3 min. Images were taken before and after irradiation with the 355 nm laser on a confocal microscope. Scale bar 30 μm.
as §5, §1
as §6, with “confluency.” for “confluency. After 6 h incubation in a humidified 5% CO2 incubator at 37° C. the medium was changed to a fresh high-glucose DMEM medium with GlutaMAX-1 supplemented with 10% FBS. The cells were incubated for 1-2 days before imaging.”

[3] = test system: SNAP-tag in the nucleus of Hela cells; assay: Live-cell imaging, localisation in Hela cells expressing SNAP-tag in the nucleus; assay type: cell-based
Protocol: as §5, §1, §6

Tubulin = assay: Live-cell imaging, localisation of PA-SiR-Tubulin to its target; assay type: cell-based
Protocol: as §1, §2, §3, §4

SMILES: CN(C)c1ccc2c(c1)[Si](C)(C)c1cc(N(C)C)ccc1C2=CCCC(=O)O [2a, 4-(3,7-Bis(dimethylamino)-5,5-dimethyldibenzo[b,e]silin-10(5H)-ylidene)butanoicacid]
- absorbance (before photoactivation) [1]: only absorbance in the UV-range

SMILES: C/C1=C\CC[C@H](C)OC(=O)C[C@H](c2ccc(O)cc2)NC(=O)[C@@H](Cc2cc3ccccc3[nH]2)N(C)C(=O)[C@H](CCCCNC(=O)CCC=C2c3ccc(N(C)C)cc3[Si](C)(C)c3cc(N(C)C)ccc32)NC(=O)[C@@H](C)C1 [PA-SiR-Actin, N-(4-((4R,7R,10S,13S,19S,E)-7-((1H-Indol-2-yl)methyl)-4-(4-hydroxyphenyl)-8,13,15,19-tetramethyl-2,6,9,12-tetraoxo-1-oxa-5,8,11-triazacyclononadec-15-en-10-yl)butyl)-4-(3,7-bis(dimethylamino)-5,5-dimethyldibenzo[b,e]silin-10(5H)-ylidene)butanamide]
- localisation to target (actin) (Actin): localised to their targets

SMILES: CN1CCN(c2ccc3nc(-c4ccc5nc(-c6ccc(OCCCCNC(=O)CCC=C7c8ccc(N(C)C)cc8[Si](C)(C)c8cc(N(C)C)ccc87)cc6)[nH]c5c4)[nH]c3c2)CC1 [PA-SiR-DNA, 4-(3,7-Bis(dimethylamino)-5,5-dimethyldibenzo[b,e]silin-10(5H)-ylidene)-N-(4-(4-(6-(4-methylpiperazin-1-yl)-1H,3′H-[2,5′-bibenzo[d]imidazol]-2′-yl)henoxy)butyl)butanamide]
- localisation to target (DNA) (DNA): localised to their targets

SMILES: CN(C)c1ccc2c(c1)[Si](C)(C)c1cc(N(C)C)ccc1C2=CCCC(=O)NCCOCCOCCCCCCCl [PA-SiR-Halo, 4-(3,7-Bis(dimethylamino)-5,5-dimethyldibenzo[b,e]silin-10(5H)-ylidene)-N-(2-(2-((6-chlorohexyl)oxy)ethoxy)ethyl)butanamide]
- localisation to HaloTag in the nucleus [2]: successfully localised
- localisation to H2B (HaloTag-H2B fusion): successfully localised

SMILES: CN(C)c1ccc2c(c1)[Si](C)(C)c1cc(N(C)C)ccc1C2=CCCC(=O)NCc1ccc(COc2nc(N)nc3[nH]cnc23)cc1 [PA-SiR-SNAP, N-(4-(((2-Amino-9H-purin-6-yl)oxy)methyl)benzyl)-4-(3,7-bis(dimethylamino)-5,5-dimethyldibenzo[b,e]silin-10(5H)-ylidene)butanamide]
- localisation to SNAP-tag in the nucleus [3]: successfully localised

SMILES: CC(=O)O[C@@]12CO[C@@H]1C[C@H](O)[C@@]1(C)C(=O)[C@H](O)C3=C(C)[C@@H](OC(=O)C(O)C(NC(=O)CCCCCCCNC(=O)CCC=C4c5ccc(N(C)C)cc5[Si](C)(C)c5cc(N(C)C)ccc54)c4ccccc4)C[C@@](O)([C@@H](OC(=O)c4ccccc4)[C@H]21)C3(C)C (stereo partly drawn) [PA-SiR-Tubulin, (2αR,4S,4αS,6R,9S,11S,12S,12αR,12βS)-12β-Acetoxy-9-((3-(8-(4-(3,7-bis(dimethylamino)-5,5-dimethyldibenzo[b,e]silin-10(5H)-ylidene)butanamido)octanamido)-2-hydroxy-3-phenylpropanoyl)oxy)-4,6,11-trihydroxy-4α,8,13,13-tetramethyl-5-oxo-2α,3,4,4α,5,6,9,10,11,12,12α,12β-dodecahydro-1H-7,11-methanocyclodeca[3,4]benzo[1,2-β]oxet-12-yl benzoate]
- localisation to target (tubulin) (Tubulin): localised to their targets
